Laboratory results as given in ChEMBL document CHEMBL5528062 (J Med Chem, 2024).

Legend:
[1] = test system: Mycobacterium tuberculosis; assay: Induction of resistance development in Mycobacterium tuberculosis harbouring katG F594C mutant assessed as resistance frequency at 5 times of MIC by visual analysis; assay type: functional
[2] = test system: Mycobacterium tuberculosis; assay: Induction of resistance development in Mycobacterium tuberculosis harbouring atpE gene assessed as resistance frequency at 5 times of MIC by visual analysis; assay type: functional

SMILES | Activity [1] [%] | Activity [2] [%]
C[C@]1(COc2ccc(N3CCC(Oc4ccc(OC(F)(F)F)cc4)CC3)cc2)Cn2cc([N+](=O)[O-])nc2O1 | 2 | –
COc1nc2ccc(Br)cc2cc1[C@@H](c1ccccc1)[C@@](O)(CCN(C)C)c1cccc2ccccc12 [BEDAQUILINE] | 5.26 | 17.3
